This is an account of results in patent publication US6403575B1, “3-Pyridyl enantiomers and their use as analgesics” (Abbott Laboratories, priority 1996, dated 2002).

Structures can show the parent of a compound that is named as a salt. Where two headings read alike, the source gives them in different places.

As usually defined, the Ki is a dissociation constant, usually derived from enzyme kinetics or from competition with a known ligand. One may read the Cmax as the maximum level reached in the sampled fluid or tissue. For orientation: Tmax means the time at which the peak concentration occurs. One may read the t½ as how long it takes for the measured level to halve.

Data set [1] deals with T1, neuronal nicotinic acetylcholine receptors (Rattus norvegicus, UniProt P09483+P12390).
T1 construct: crude synaptic membrane preparations from whole rat brain; from tissue; host or cells: whole rat brain, crude synaptic membranes
T1 sequence (P09483 31-630): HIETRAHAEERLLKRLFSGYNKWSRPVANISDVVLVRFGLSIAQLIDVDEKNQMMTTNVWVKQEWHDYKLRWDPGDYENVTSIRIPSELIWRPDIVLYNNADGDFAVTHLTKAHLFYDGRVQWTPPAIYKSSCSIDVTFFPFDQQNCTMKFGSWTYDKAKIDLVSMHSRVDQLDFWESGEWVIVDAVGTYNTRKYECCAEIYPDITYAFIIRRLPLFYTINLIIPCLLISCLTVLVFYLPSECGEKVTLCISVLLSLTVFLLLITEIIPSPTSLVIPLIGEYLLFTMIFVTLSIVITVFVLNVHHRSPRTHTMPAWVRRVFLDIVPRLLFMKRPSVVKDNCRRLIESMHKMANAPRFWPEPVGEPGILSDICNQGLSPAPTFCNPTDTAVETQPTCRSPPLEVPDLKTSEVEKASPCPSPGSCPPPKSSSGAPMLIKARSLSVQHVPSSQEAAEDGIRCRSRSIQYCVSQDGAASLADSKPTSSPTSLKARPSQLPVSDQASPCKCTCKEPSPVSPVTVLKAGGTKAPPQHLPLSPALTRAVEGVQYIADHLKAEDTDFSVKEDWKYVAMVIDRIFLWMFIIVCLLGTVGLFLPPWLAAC
T1 sequence (P12390 25-500): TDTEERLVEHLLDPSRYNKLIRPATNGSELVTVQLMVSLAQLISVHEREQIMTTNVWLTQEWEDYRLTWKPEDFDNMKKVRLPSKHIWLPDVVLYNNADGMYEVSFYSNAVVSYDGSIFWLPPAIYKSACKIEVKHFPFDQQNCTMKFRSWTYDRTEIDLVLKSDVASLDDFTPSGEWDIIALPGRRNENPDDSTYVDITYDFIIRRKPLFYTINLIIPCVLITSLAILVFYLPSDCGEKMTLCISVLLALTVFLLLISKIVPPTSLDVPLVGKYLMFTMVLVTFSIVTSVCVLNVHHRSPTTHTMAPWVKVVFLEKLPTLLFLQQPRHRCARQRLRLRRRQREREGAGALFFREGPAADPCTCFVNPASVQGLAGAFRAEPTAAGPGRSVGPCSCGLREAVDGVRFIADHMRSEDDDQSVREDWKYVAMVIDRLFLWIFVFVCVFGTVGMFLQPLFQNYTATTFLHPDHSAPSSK
In words: [3H]-cytisine binding to neuronal nicotinic acetylcholine receptors, whole rat brain membranes. Here is the method:
Protocol for Determination of Nicotinic Acetylcholine Channel Receptor Binding Potencies of Ligands
Binding of [^3H]-cytisine ([^3H]-CYT) to neuronal nicotinic acetylcholine receptors was accomplished using crude synaptic membrane preparations from whole rat brain (Pabreza et al., Molecular Pharmacol., 1990, 39:9). Washed membranes were stored at −80° C. prior to use. Frozen aliquots were slowly thawed and resuspended in 20 volumes of buffer (containing: 120 mM NaCl, 5 mM KCl, 2 mM MgCl2, 2 mM CaCl2 and 50 mM Tris-Cl, pH 7.4 @4° C.). After centrifuging at 20,000×g for 15 minutes, the pellets were resuspended in 30 volumes of buffer. Homogenate (containing 125-150 μg protein) was added to triplicate tubes containing concentrations of test compound and [^3H]-CYT (1.25 nM) in a final volume of 500 μL. Samples were incubated for 60 minutes at 4° C., then rapidly filtered through Whatman GF/B filters presoaked in 0.5% polyethyleneimine using 3×4 mL of ice-cold buffer. The filters are counted in 4 mL of Ecolume® (ICN). Nonspecific binding was determined in the presence of 10 μM (−)-nicotine and values were expressed as a percentage of total binding.

The next data set concerns mice. As to the kind of experiment: Mouse Hot Plate Paradigm. The class given is in vivo. Set-up: key to MED Hot plate model (μmol/kg, i.p.): NS = no significant effect observed relative to saline controls at the doses tested. The settings on record: 30 minutes prior to testing, 55° C.; for minimal effective dose: ip, 0.5 h, i.p., read-out: MED Hot plate model (μmol/kg, i.p.).

For data set [2] the following is noted: dog, in vivo; for AUD0. / Cmax / Tmax / t½: po; for Cmax / Tmax / t½: 200 nmol/kg. The method, then: Beagle dogs were fasted overnight prior to dosing but were permitted free access to water. Each of the prodrugs was administered to a group of three animals at a dose of 200 nmol/kg. The formulation was adminstered by oral gavage. The prodrugs were prepared as 200 nmol/ml (1 ml/kg) solutions in normal saline. Blood samples from a jugular vein of each dog prior to dosing and 0.17, 0.33, 0.5, 0.75, 1, 1.5, 2, 3, 4, 6 and 8 hours after drug administration.

Setting [3] is: [3H]-cytisine 1.25 nM, whole rat brain membranes, read-out: [3H] CYT Ki.

Take `Fc1ncc(OC[C@H]2CCN2)cc1Br` [Example 125, 5-bromo-6-fluoro-3-(2-(R)-azetidinylmethoxy)pyridine]: the affinity in data set [1] corresponds to a Ki of 0.04 nM.

Regarding `CCc1cc(OC[C@@H]2CCN2)cnc1Cl` [Example 27, 2-Chloro-3-ethyl-5-((2S)-azetidinylmethoxy)pyridine hydrochloride], in data set [1] (setting [3]), the Ki was found to be 0.04 nM. Further, the “MED Hot plate model (μmol/kg, i.p.)” value with mice is “NS”.

As to `Cc1ccc(OC[C@H]2CCN2)c(F)n1` [Example 118, 2-Fluoro-6-methyl-3-(2-(R)-azetidinylmethoxy)pyridine tosylate], the Ki in data set [1] (setting [3]) came to 4.8 nM.

In the case of `Brc1cncc(OC[C@@H]2CCN2)c1` [Example 12, 5-((2S)-Azetidinylmethyloxy)-3-bromopyridine dihydrochloride], the Ki in data set [1] (setting [3]) was 0.26 nM. In addition, in the data set with mice, the “MED Hot plate model (μmol/kg, i.p.)” value is given as “NS”.

Turning to `C=Cc1cc(OC[C@@H]2CCN2)cnc1Cl` [Example 26, 2-Chloro-3-vinyl-5-((2S)-azetidinylmethoxy)pyridine hydrochloride], the Ki in data set [1] (setting [3]) was 0.24 nM. The minimal effective dose with mice was 1.9 µmol/kg.

Regarding `Brc1ccc(OC[C@H]2CCN2)cn1` [Example 128, 5-(2-(R)-azetidinylmethoxy)-2-bromo-pyridine tosylate], in data set [1] (setting [3]), the Ki was 0.17 nM.

As to `CCCc1cc(OC[C@@H]2CCN2)cnc1Cl` [Example 28, 2-Chloro-3-propyl-5-((2S)-azetidinylmethoxy)pyridine hydrochloride], the Ki in data set [1] (setting [3]) amounted to 0.03 nM. Besides, the “MED Hot plate model (μmol/kg, i.p.)” value in the data set on mice was “NS”.

Consider `COc1ccc(C(=O)N2CC[C@@H]2COc2ccc(F)nc2)cc1` [Example 4-MeOC6H4CO], for which, in data set [2], the “F* (%) efficiency of conversion” value is reported as 37.7%, the “AUD0.” value was found to be 26.09 ng·h/mL, the “Cmax” value was 7.43 ng/mL and the “Tmax” value was determined as 0.8 h. Moreover, the “t½” value in data set [2] stood at 2.0 h.

For `Cc1cc(OC[C@@H]2CCN2)cnc1Cl` [Example 25, 2-Chloro-3-methyl-5-(2-(S)-azetidinylmethoxy)pyridine citrate], the inhibitory constant (Ki) in data set [1] (setting [3]) was found to be 0.05 nM. Further, in the data set on mice, the minimal effective dose came out at 0.062 µmol/kg.

As to `Clc1ncccc1OC[C@H]1CCN1` [Example 97, 2-Chloro-3-(2-(R)-azetidinylmethoxy)pyridine tosylate], the Ki in data set [1] (setting [3]) came to 85 nM.

For the compound `Cc1ccc(OC[C@@H]2CCN2)cn1` [Example 20, 5-((2S)-Azetidinylmethyloxy)-2-methylpyridine dihydrochloride], the Ki in data set [1] (setting [3]) stood at 0.06 nM. The minimal effective dose with mice was found to be 0.62 µmol/kg.

As for `O=C(c1ccc(F)cc1)N1CC[C@@H]1COc1ccc(F)nc1` [Example 4-FC6H4CO], in data set [2], the “F* (%) efficiency of conversion” value turned out to be 13.5%, the “AUD0.” value amounted to 9.35 ng·h/mL, the “Cmax” value came out at 3.25 ng/mL and the “Tmax” value worked out at 0.8 h. Besides, the “t½” value in data set [2] was 1.6 h.

In the case of `Fc1ncc(OC[C@@H]2CCN2)cc1Br` [Example 31, 5-((2S)-azetidinylmethoxy)-3-bromo-2-fluoropyridine dibenzoic acid salt], in data set [1] (setting [3]), the Ki is 0.03 nM. Also, the minimal effective dose in the data set on mice worked out at 6.2 µmol/kg.

With `C=Cc1cc(OC[C@@H]2CCN2)cnc1C` [Example 35, 6-Methyl-5-vinyl-3-((2S)-azetidinylmethoxy)pyridine hydrochloride], the inhibition constant (Ki) in data set [1] (setting [3]) worked out at 0.22 nM. For the same compound, the “MED Hot plate model (μmol/kg, i.p.)” value with mice is reported as “NS”.

For the compound `CCCCc1cc(OC[C@@H]2CCN2)cnc1Cl` [Example 29, 3-Butyl-2-chloro-5-((2S)-azetidinylmethoxy)pyridine hydrochloride], the inhibition constant (Ki) in data set [1] (setting [3]) turned out to be 0.16 nM. For the same compound, in the data set on mice, the “MED Hot plate model (μmol/kg, i.p.)” value is listed as “NS”.

As to `O=C(c1ccc(Cl)cc1)N1CC[C@@H]1COc1ccc(F)nc1` [Example 4-ClC6H4CO], in data set [2], the “F* (%) efficiency of conversion” value is 26.9%, the “AUD0.” value turned out to be 18.61 ng·h/mL, the “Cmax” value amounted to 4.54 ng/mL and the time to peak (Tmax) was determined as 0.8 h. For the same compound, the “t½” value in data set [2] stood at 2.5 h.

As for `CCc1cc(OC[C@@H]2CCN2)cnc1C` [Example 36, 6-Ethyl-6-methyl-3-((2S)-azetidinylmethoxy)pyridine hydrochloride], the Ki in data set [1] (setting [3]) amounted to 0.04 nM. Besides, the “MED Hot plate model (μmol/kg, i.p.)” value with mice was “NS”.

With `Cc1ccc(OC[C@H]2CCN2)cn1` [Example 115, 6-Methyl-3-(2-(R)-azetidinylmethoxy)pyridine], the Ki in data set [1] (setting [3]) worked out at 0.07 nM.

On to `Cc1ccc(OC[C@@H]2CCN2)c(F)n1` [Example 117, 2-Fluoro-6-methyl-3-(2-(S)-azetidinylmethoxy)pyridine tosylate], for which, in data set [1] (setting [3]), the Ki turned out to be 0.17 nM.

For the compound `CCc1cc(OC[C@@H]2CCN2)cnc1F` [Example 126, 5-ethyl-6-fluoro-3-(2-(S)-azetidinylmethoxy)pyridine], the Ki in data set [1] (setting [3]) worked out at 0.07 nM.

`CCOc1cncc(OC[C@@H]2CCN2)c1` [Example 120, 5-Ethoxy-3-(2-(S)-azetidinylmethoxy)pyridine tosylate]: in data set [1] (setting [3]), the Ki worked out at 0.04 nM.

On to `C=CCc1cncc(OC[C@@H]2CCN2)c1` [Example 130, 3-(2-(S)-azetidinylmethoxy)-5-(3-propenyl)pyridine hydrochloride], for which the Ki in data set [1] (setting [3]) was 0.04 nM.

As for `Fc1ncc(OCC2CCN2)cc1Cl` (stereo not drawn) [Example 33, 5-((29)-azetidinylmethoxy)-3-chloro-2-fluoropyridine tosylate], the Ki in data set [1] (setting [3]) came out at 0.04 nM.

In the case of `Cc1cc(OC[C@H]2CCN2)cnc1Cl` [Example 127, 2-Chloro-3-methyl-5-(2-(R)--azetidinylmethoxy)pyridine citrate], in data set [1], the Ki came out at 0.06 nM.

In the case of `O=C(c1ccc([N+](=O)[O-])cc1)N1CC[C@@H]1COc1ccc(F)nc1` [Example 4-NO2C6H4CO], in data set [2], the “F* (%) efficiency of conversion” value was determined as 27.1%, the “AUD0.” value turned out to be 18.76 ng·h/mL, the “Cmax” value is 6.01 ng/mL and the “Tmax” value is 0.8 h. Further, the “t½” value in data set [2] came to 1.9 h.

`C=Cc1cncc(OC[C@@H]2CCN2)c1` [Example 22, 5-Vinyl-3-((2S)-Azetidinylmethyloxy)lpyridine dihydrochloride]: the Ki in data set [1] (setting [3]) is 0.97 nM.

For `N#Cc1ccc(OC[C@@H]2CCN2)cn1` [Example 123, 6-Cyano-3-(2(S)-azetidinylmethoxy)pyridine hydrochloride], the Ki in data set [1] (setting [3]) was determined as 1.9 nM.

Consider `C=Cc1cc(OC[C@@H]2CCN2)cnc1F` [Example 131, 5-(2-(S)-Azetidinylmethoxy)-3-ethenyl-2-fluoropyridine tosylate], for which the inhibition constant Ki in data set [1] (setting [3]) stood at 0.13 nM.

Regarding `COC(=O)c1ccc(C(=O)N2CC[C@@H]2COc2ccc(F)nc2)cc1` [4-MeO2CC6H4CO], in data set [2], the “F* (%) efficiency of conversion” value came out at 61.2%, the “AUD0.” value amounted to 42.37 ng·h/mL, the “Cmax” value stood at 10.31 ng/mL and the “Tmax” value was 0.8 h. Also, the “t½” value in data set [2] turned out to be 1.8 h.

Consider `Fc1ccc(OC[C@@H]2CCN2)c(F)n1` [Example 116, 2.6-Difluoro-3-(2-(S)-azetidinylmethoxy)pyridine tosylate], for which, in data set [1] (setting [3]), the Ki came to 0.34 nM.

In the case of `O=C(c1ccccc1)N1CC[C@@H]1COc1ccc(F)nc1` [PhCO], in data set [2], the “F* (%) efficiency of conversion” value was 27.3%, the “AUD0.” value is 18.89 ng·h/mL, the highest concentration (Cmax) was found to be 6.31 ng/mL and the time of peak concentration (Tmax) is 0.6 h. The “t½” value in data set [2] stood at 1.8 h.

Take `C=Cc1cc(OC[C@H]2CCN2)cnc1F` [Example 129, 5-((2R)-Azetidinylmethoxy)-2-fluoro-3-vinylpyridine tosylate]: in data set [1] (setting [3]), the Ki is 0.09 nM.

With `Clc1cncc(OC[C@H]2CCN2)c1` [Example 114, 3-(2-(R)-Azetidinylmethoxy)-5-chloropyridine tosylate], the Ki in data set [1] (setting [3]) is 0.12 nM.

As to `Clc1ncccc1OC[C@@H]1CCN1` [Example 121, 2-Chloro-3-(2-(S)-azetidinylmethoxy)pyridine hydrochloride], the Ki in data set [1] (setting [3]) was determined as 2.3 nM.

On to `CN1CC[C@H]1COc1ccc(C(F)F)nc1` [Example 113, 6-Difluoromethyl-3-((1-methyl-2-(S)-azetidinyl)methoxy)pyridine citrate], for which, in data set [1] (setting [3]), the Ki stood at 0.17 nM.

On to `Cc1ncc(OC[C@H]2CCN2)cc1Br` [Example 124, 3-(2-(R)-azetidinylmethoxy)-5-bromo-6-methylpyridine tosylate], for which the Ki in data set [1] (setting [3]) came to 0.03 nM.

On to `Cc1ccc(C(=O)N2CC[C@@H]2COc2ccc(F)nc2)cc1` [Example 4-MeC6H4CO], for which, in data set [2], the “F* (%) efficiency of conversion” value was 43.1%, the “AUD0.” value stood at 29.85 ng·h/mL, the “Cmax” value was determined as 7.05 ng/mL and the “Tmax” value was 0.8 h. The “t½” value in data set [2] turned out to be 2.4 h.
